This is an account of results in patent US20040034026A1, “Combination comprising an agent decreasing vegf activity and an agent decreasing egf activity” (priority 2000, published 2004).

Test [1] relates to DU145 prostate carcinoma human cell lines. The test is described as follows: DU145 prostate carcinoma human cell lines grown i.d. in nude mice. Type of test: in vivo. The procedure:
DU145 Prostate Carcinoma Human Cell Lines Grown i.d. in Nude Mice
DU145 prostate carcinoma human cell lines are grown i.d. in nude mice. Tumor cell (10^6) are injected intradermally (i.d.) on the left and right flank of nude mice. Treatment with compounds is started after 25-32 days when tumors reach a size of 80-100 mm^2. At this time animals are sorted into groups with equivalent mean and range of tumor sizes. Treatment is then randomized to the different groups. Tumor size is measured with calipers on a weekly basis.
After 4 weeks of treatment, 50 mg/kg po/day of PTK787 (active ingredient 1) reduces the tumor growth by 74%. 50 mg/kg po/day of the selective EGF receptor tyrosine kinase inhibitor as described in Example 1 of WO 96/33980 (active ingredient 2) reduces tumor growth by 91%. The maximum effects of either agent given alone in this model is stable disease. Simultaneous treatment with both active ingredients (50 mg/kg po/day of each active ingredient) results in tumor regression (25% reduction compared to intial tumor weight).
After 2 weeks of treatment, 50 mg/kg po/day of PTK787 (active ingredient 1) reduces the tumor growth by 41%. 50 mg/kg po/day of the selective EGF receptor tyrosine kinase inhibitor PKI166 reduces tumor growth by 44%. Simultaneous treatment with both active ingredients (50 mg/kg po/day of each active ingredient) reduces the tumor growth by 74%.

Test [2] has as its system NeuT transfected HC11 mouse mammary epithelial cells (breast tumors). The test is described as follows: Mouse breast carcinoma induced by transfection of breast epithelial cells with NeuT (transgenic organ tumor model). As to conditions: female BALB/c mice, 100 mg/kg of each active ingredient once per day; fraction of tumors. Format: in vivo. The procedure:
Treatment of Mouse Breast Carcinoma Induced by Transfection of Breast Epithelial Cells with NeuT (Transgenic Organ Tumor Model)
The dual treatment with PTK787 in the form of its succinate salt (active ingredient 1, Example 62 of WO 98/35958) and an EGF receptor tyrosine inhibitor of formula IV wherein q′ is 1, n′ is 0, R^E1 is hydrogen, R^E2 is 3-acetylamino phenyl and R^E6 is methyl (active ingredient 2, Example 22e of WO 97/02266) is performed on a genetically engineered tumor model, which uses “transgenic” organs in normal mice. NeuT (the point mutated rat homolog of erbB-2) transfected HC11 epithelial mouse mammary epithelial cells are transplanted into the gland-free mammary fat pad (cleared fat-pad) of the fourth mammary gland of female BALB/c mice according to an established method (DeOme, Faulkin, et al., Cancer Res. 19: 515-520, 1959). Within 4 to 6 weeks, the transplanted oncogene-transfected mammary epithelial cells develop breast tumors. Tumors are focal and heterogeneous in morphology, and oncogene and other molecular marker expression. Tumors grow rapidly and most of the animals develop breast tumors bilaterally after transplantation. The animals are allocated randomly to three different treatment groups. A first group is treated with 100 mg/kg of active ingredient 1 dosed once per day alone; a second group is treated with 100 mg/kg of active ingredient 2 dosed once per day alone; and a third group is treated with the combination of both active ingredients dosed with 100 mg/kg once per day. […]

Where [3] appears, read: 50 mg/kg po/day, after 4 weeks of treatment.
Where [4] appears, read: 50 mg/kg po/day of each active ingredient, after 2 weeks of treatment.

Structures are written as SMILES.

As for `COc1cc2ncnc(Nc3ccc(F)c(Cl)c3)c2cc1OCCCN1CCOCC1` [Example 1 of WO 96/33980, reference compound], the “reduction of tumor growth” value in test [1] (setting [3]) amounted to 91%.

For `C[C@@H](Nc1ncnc2[nH]c(-c3ccc(O)cc3)cc12)c1ccccc1` [PKI166], in test [1] (setting [4]), the “reduction of tumor growth” value turned out to be 44%.

With `Clc1ccc(Nc2nnc(Cc3ccncc3)c3ccccc23)cc1` [PTK787], in test [2], the tumors with regression was 7%, the “tumors with stable disease” value is 21% and the “tumors without response to the treatment” value was 78%. Besides, the “reduction of tumor growth” value in test [1] (setting [4]) turned out to be 41%. The “reduction of tumor growth” value in test [1] (setting [3]) is 74%.
